One series concerns Candida parapsilosis. Briefly: Antifungal activity against Candida parapsilosis after 48 hrs by microbroth dilution technique. The class given is functional.
Another series has as its system Sporothrix schenckii. Briefly: Antifungal activity against Sporothrix schenckii after 72 hrs by microbroth dilution technique. It is filed as functional.
For another series, the system named is Aspergillus fumigatus. Put plainly: Antifungal activity against Aspergillus fumigatus after 72 hrs by microbroth dilution technique. The class given is functional.
The next series concerns Cryptococcus neoformans. Put plainly: Antifungal activity against Cryptococcus neoformans after 72 hrs by microbroth dilution technique. The class given is functional.
The subject of the next series is Candida albicans. Put plainly: Antifungal activity against Candida albicans after 48 hrs by microbroth dilution technique. It is filed as functional.
The test system of series [1] is Trichophyton mentagrophytes. Put plainly: Antifungal activity against Trichophyton mentagrophytes after 96 hrs by microbroth dilution technique. The class given is functional.
For series [2], the system named is L929. Put plainly: Cytotoxicity against mouse L929 cells at >3.12 ug/ml after 24 hrs using Giemsa staining by phase contrast microscopy. It is filed as cell-based. The settings on record: l929, 24 h.
Series [3] has as its system L929. Put plainly: Cytotoxicity against mouse L929 cells up to 3.12 ug/ml after 24 hrs using Giemsa staining by phase contrast microscopy. The class given is cell-based. The settings on record: l929, 24 h.
The mark [4] stands for this setting: Lodderomyces parapsilosis, 48 h, read-out: MIC.
The mark [5] stands for this setting: Sporothrix schenckii, 72 h, read-out: MIC.
The mark [6] stands for this setting: Aspergillus fumigatus, 72 h, read-out: MIC.
[7] abbreviates: Cryptococcus neoformans, 72 h, read-out: MIC.
Setting [8] is: Candida albicans, 48 h, read-out: MIC.
The mark [9] stands for this setting: Trichophyton mentagrophytes, 96 h, read-out: MIC.

For 12 compounds, MIC and Activity results are on record in ChEMBL document CHEMBL3217659, “Synthesis and antifungal activity of 1,5-disubstituted-1,2,3-triazole containing fluconazole analogues” (Medchemcomm, 2012).

Values after ≈ are worked out from the molar mass of the structure shown.

For `CCCCCCc1cn(C[C@@](O)(Cn2cncn2)c2ccc(F)cc2F)nn1`, the MIC is 0.19 µg/mL (≈ 0.487 µM) with Candida parapsilosis (setting [4]); 0.78 µg/mL (≈ 2 µM) with Sporothrix schenckii (setting [5]); 50 µg/mL (≈ 128 µM) in the series on Aspergillus fumigatus (setting [6]); 50 µg/mL (≈ 128 µM) with Cryptococcus neoformans (setting [7]); 0.0225 µg/mL (≈ 0.0576 µM) in the series on Candida albicans (setting [8]); 6.25 µg/mL (≈ 16 µM) in series [1] (setting [9]).
On to `CCCCCCc1cn(C[C@](O)(Cn2cncn2)c2ccc(F)cc2F)nn1`, for which the MIC in the series with Candida parapsilosis (setting [4]) is more than 50 µg/mL; in the series on Sporothrix schenckii (setting [5]), 50 µg/mL (≈ 128 µM); in the series on Aspergillus fumigatus (setting [6]), more than 50 µg/mL; with Cryptococcus neoformans (setting [7]), 50 µg/mL (≈ 128 µM); in the series on Candida albicans (setting [8]), 50 µg/mL (≈ 128 µM); in series [1] (setting [9]), 50 µg/mL (≈ 128 µM).
Take `CCCCCCCCn1nncc1CC(O)(Cn1cncn1)c1ccc(F)cc1F` (racemic): the MIC with Candida parapsilosis (setting [4]) was 50 µg/mL (≈ 119 µM); in the series on Sporothrix schenckii (setting [5]), 6.25 µg/mL (≈ 14.9 µM); with Aspergillus fumigatus (setting [6]) it was more than 50 µg/mL; in the series with Cryptococcus neoformans (setting [7]), 50 µg/mL (≈ 119 µM); in the series on Candida albicans (setting [8]) it was 0.39 µg/mL (≈ 0.932 µM); in series [1] (setting [9]), 50 µg/mL (≈ 119 µM).
For `CCCCCCc1cnnn1CC(O)(Cn1cncn1)c1ccc(F)cc1F` (racemic), the MIC in the series on Candida parapsilosis (setting [4]) was more than 50 µg/mL; in the series with Sporothrix schenckii, 3.12 µg/mL (≈ 7.99 µM); with Aspergillus fumigatus (setting [6]), 25 µg/mL (≈ 64 µM); in the series with Cryptococcus neoformans (setting [7]), 50 µg/mL (≈ 128 µM); in the series on Candida albicans it was 0.078 µg/mL (≈ 0.2 µM); in series [1] (setting [9]), 50 µg/mL (≈ 128 µM).
Take `CCCCCCCCn1cc(CC(O)(Cn2cncn2)c2ccc(F)cc2F)nn1` (racemic): the Activity result is on record as “Toxic” with L929 [2] and “Non-toxic” with L929 [3]. Besides, the MIC in the series with Candida parapsilosis was determined as 0.0112 µg/mL (≈ 0.0268 µM); against Sporothrix schenckii it was 0.045 µg/mL (≈ 0.108 µM); against Aspergillus fumigatus, 3.12 µg/mL (≈ 7.46 µM); in the series on Cryptococcus neoformans (setting [7]) it was 25 µg/mL (≈ 59.7 µM); with Candida albicans, 0.007 µg/mL (≈ 0.0167 µM); in series [1] it was 0.39 µg/mL (≈ 0.932 µM).
`CCCCCCc1cn(CC(O)(Cn2cncn2)c2ccc(F)cc2F)nn1` (racemic): the MIC with Candida parapsilosis (setting [4]) amounted to 0.39 µg/mL (≈ 0.999 µM); in the series on Sporothrix schenckii (setting [5]), 0.78 µg/mL (≈ 2 µM); in the series with Aspergillus fumigatus (setting [6]), 25 µg/mL (≈ 64 µM); in the series with Cryptococcus neoformans (setting [7]), 25 µg/mL (≈ 64 µM); with Candida albicans (setting [8]) it was 0.09 µg/mL (≈ 0.231 µM); in series [1] (setting [9]) it was 12.5 µg/mL (≈ 32 µM).
As for `CCCCCCCCn1cc(CC(O)(Cn2cncn2)c2ccc(F)cc2F)nn1` (stereo in doubt; 2A), the MIC in the series with Candida parapsilosis stood at 0.0011 µg/mL (≈ 0.00263 µM); against Sporothrix schenckii it was 0.0225 µg/mL (≈ 0.0538 µM); in the series with Candida albicans it was 0.0011 µg/mL (≈ 0.00263 µM); in series [1], 0.19 µg/mL (≈ 0.454 µM).
On to `CCCCCCCCn1cc(CC(O)(Cn2cncn2)c2ccc(F)cc2F)nn1` (stereo in doubt; 2B), for which the MIC in the series on Candida parapsilosis came to 50 µg/mL (≈ 119 µM); in the series on Sporothrix schenckii, 12.5 µg/mL (≈ 29.9 µM); in the series with Aspergillus fumigatus it was 50 µg/mL (≈ 119 µM); against Cryptococcus neoformans, 25 µg/mL (≈ 59.7 µM); against Candida albicans it was 12.5 µg/mL (≈ 29.9 µM); in series [1], 25 µg/mL (≈ 59.7 µM).
With `CCCCCCc1cnnn1CC(O)(Cn1cncn1)c1ccc(F)cc1F` (stereo in doubt; 9A), the MIC against Candida parapsilosis was 50 µg/mL (≈ 128 µM); with Sporothrix schenckii, 1.56 µg/mL (≈ 4 µM); in the series on Aspergillus fumigatus, more than 50 µg/mL; against Cryptococcus neoformans, 50 µg/mL (≈ 128 µM); against Candida albicans, 0.039 µg/mL (≈ 0.0999 µM).
Take `CCCCCCc1cnnn1CC(O)(Cn1cncn1)c1ccc(F)cc1F` (stereo in doubt; 9B): the MIC against Sporothrix schenckii was more than 50 µg/mL; with Cryptococcus neoformans, more than 50 µg/mL; against Candida albicans, more than 50 µg/mL; in series [1] it was 50 µg/mL (≈ 128 µM).
Regarding `C[C@@H]1[C@H](O)[C@@H](C)/C=C/C=C/C=C/C=C/C=C/C=C/C=C/[C@H](O[C@@H]2O[C@H](C)[C@@H](O)[C@H](N)[C@@H]2O)C[C@@H]2O[C@](O)(C[C@@H](O)C[C@@H](O)[C@H](O)CC[C@@H](O)C[C@@H](O)CC(=O)O[C@H]1C)C[C@H](O)[C@H]2C(=O)O` [AMPHOTERICIN B], the minimal inhibitory concentration (MIC) in the series on Candida parapsilosis (setting [4]) was 0.12 µg/mL (≈ 0.13 µM); in the series on Sporothrix schenckii (setting [5]), 0.12 µg/mL (≈ 0.13 µM); in the series with Aspergillus fumigatus (setting [6]), 0.5 µg/mL (≈ 0.541 µM); in the series with Cryptococcus neoformans (setting [7]) it was 0.06 µg/mL (≈ 0.0649 µM); with Candida albicans (setting [8]), 0.12 µg/mL (≈ 0.13 µM); in series [1] (setting [9]), 0.12 µg/mL (≈ 0.13 µM).
In the case of `OC(Cn1cncn1)(Cn1cncn1)c1ccc(F)cc1F` [FLUCONAZOLE], the MIC with Candida parapsilosis (setting [4]) turned out to be 1 µg/mL (≈ 3.27 µM); in the series with Sporothrix schenckii (setting [5]), 2 µg/mL (≈ 6.53 µM); in the series with Aspergillus fumigatus (setting [6]) it was 2 µg/mL (≈ 6.53 µM); in the series on Cryptococcus neoformans (setting [7]) it was 1 µg/mL (≈ 3.27 µM); with Candida albicans (setting [8]) it was 0.5 µg/mL (≈ 1.63 µM); in series [1] (setting [9]) it was 1 µg/mL (≈ 3.27 µM).
